Read-outs that look alike come from different tables or passages of the source.
Assay: Pharmacokinetic study of Compound A in healthy human males (Example 10)
Assay type: in vivo
Conditions: male, plasma, po, suspension of sulfate salt; for Tmax: mean of 6 subjects; for Cmax / AUC: mean of 6 subjects (CV %); for concentration at 8 h: plasma 8 hours after dosing, read-out: C8 hrs; for concentration at 12 h: plasma 12 hours after dosing, read-out: C12 hrs
Protocol: A double-blind, single-rising dose, alternating two-panel, four-period, placebo-controlled study was conducted for Compound A in healthy adult males in the fasted state. Single doses of 20, 50, 100, 200, 400, 800 and 1200 mg of Compound A, or placebo, were administered as an oral suspension of the sulfate salt form of Compound A in sterile water. Each subject received increasing single oral doses of Compound A or placebo during each of the four treatment periods in alternate panels. Panel A dosage levels were 20, 100, 400 mg, and 400 mg with food. Panel B dosage levels were 50, 200, 800 and 1200 mg. For each period, 6 subjects received Compound A and 2 subjects received placebo as allocated by a randomized schedule. In Panel A, subjects who received 400 mg of Compound A also received 400 mg of Compound A with food. The safety of the subjects was monitored prior and subsequent to dosing by clinical adverse event reporting, measurement of vital signs, physical examinations, blood and urine laboratory safety tests, and ECGs. […]

[1] = 50 mg, 50 mg single oral dose, fasted
[2] = 100 mg, 100 mg single oral dose, fasted
[3] = 200 mg, 200 mg single oral dose, fasted
[4] = 400 mg, 400 mg single oral dose, fasted
[5] = 400 mg, 400 mg single oral dose, fasted, CV not determinable
[6] = 400 mg, 400 mg w/food, single oral dose
[7] = 800 mg, 800 mg single oral dose, fasted
[8] = 800 mg, 800 mg single oral dose, fasted, mean (CV %)
[9] = 1200 mg, 1200 mg single oral dose, fasted
[10] = 1200 mg, 1200 mg single oral dose, fasted, mean (CV %)

CC(C)(C)NC(=O)[C@@H]1CN(Cc2cc3ccccc3o2)CCN1C[C@@H](O)C[C@@H](Cc1ccccc1)C(=O)N[C@H]1c2ccccc2C[C@H]1O [Compound A, N-(2(R)-hydroxy-1(S)-indanyl)-2(R)-phenylmethyl-4-(S)-hydroxy-5-(1-(4-(2-benzo[b]furanylmethyl)-2(S)-N'-(t-butylcarboxamido)-piperazinyl))-pentaneamide]
Tmax [1]: 0.6 h
Cmax [1]: 12 nM
Tmax [2]: 0.5 h
Cmax [2]: 36 nM
Tmax [3]: 0.7 h
AUC [3]: 0.24 µM·h
Cmax [3]: 85 nM
concentration at 8 h (200 mg, 200 mg single oral dose, fasted, CV not determinable): 5 nM
Tmax [4]: 1.8 h
AUC [4]: 0.66 µM·h
Cmax [4]: 166 nM
concentration at 8 h [5]: 15 nM
concentration at 12 h [5]: 6 nM
Tmax [6]: 4 h
AUC [6]: 0.8 µM·h
Cmax [6]: 170 nM
concentration at 8 h (400 mg, 400 mg w/food, single oral dose, mean (CV %)): 32 nM
concentration at 12 h (400 mg, 400 mg w/food, single oral dose, CV not determinable): 7 nM
Tmax [7]: 2.6 h
AUC [7]: 3.09 µM·h
Cmax [7]: 568 nM
concentration at 8 h [8]: 126 nM
concentration at 12 h [8]: 45 nM
Tmax [9]: 2.1 h
AUC [9]: 7.28 µM·h
Cmax [9]: 1350 nM
concentration at 8 h [10]: 338 nM
concentration at 12 h [10]: 128 nM
